Source: ChEMBL document CHEMBL3886965, “Naphthylurea derivatives and medical applications thereof” (2016)

Target: Platelet-derived growth factor receptor beta (Homo sapiens, UniProt P09619)
Assay: The rest of the stock solutions was storaged at ⿿20° C. after subpackage.

Chain of Platelet-derived growth factor receptor beta (P09619 whole entry): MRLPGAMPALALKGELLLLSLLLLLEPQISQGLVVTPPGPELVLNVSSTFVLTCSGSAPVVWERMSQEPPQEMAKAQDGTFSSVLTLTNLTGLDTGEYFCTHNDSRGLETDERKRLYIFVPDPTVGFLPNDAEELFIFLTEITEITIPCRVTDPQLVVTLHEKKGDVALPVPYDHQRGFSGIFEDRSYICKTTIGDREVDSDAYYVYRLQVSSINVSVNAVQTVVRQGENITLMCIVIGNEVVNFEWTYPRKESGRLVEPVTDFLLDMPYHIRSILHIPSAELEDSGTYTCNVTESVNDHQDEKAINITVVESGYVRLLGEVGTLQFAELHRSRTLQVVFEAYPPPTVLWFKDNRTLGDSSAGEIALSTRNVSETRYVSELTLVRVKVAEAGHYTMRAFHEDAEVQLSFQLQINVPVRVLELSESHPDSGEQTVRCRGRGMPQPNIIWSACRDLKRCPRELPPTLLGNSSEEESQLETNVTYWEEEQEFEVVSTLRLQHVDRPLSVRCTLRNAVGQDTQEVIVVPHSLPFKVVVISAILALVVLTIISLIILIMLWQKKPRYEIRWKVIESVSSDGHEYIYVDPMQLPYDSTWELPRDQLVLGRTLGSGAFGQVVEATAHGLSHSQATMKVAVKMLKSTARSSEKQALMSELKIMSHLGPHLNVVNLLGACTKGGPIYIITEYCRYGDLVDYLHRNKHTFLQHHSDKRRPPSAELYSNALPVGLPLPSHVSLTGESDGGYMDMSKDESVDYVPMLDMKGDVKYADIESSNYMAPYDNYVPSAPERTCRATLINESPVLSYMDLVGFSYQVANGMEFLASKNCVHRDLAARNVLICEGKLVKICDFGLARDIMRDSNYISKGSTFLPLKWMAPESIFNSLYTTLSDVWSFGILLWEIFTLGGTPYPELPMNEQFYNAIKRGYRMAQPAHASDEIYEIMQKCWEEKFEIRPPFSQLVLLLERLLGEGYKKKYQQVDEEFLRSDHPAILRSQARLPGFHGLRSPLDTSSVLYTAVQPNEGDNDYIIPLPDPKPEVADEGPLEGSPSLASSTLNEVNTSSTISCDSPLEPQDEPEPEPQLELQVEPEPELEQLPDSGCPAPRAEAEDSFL

Structure (SMILES) | IC50 [nM]
Cc1cccc(NC(=O)Nc2ccc(-c3ccc(OCCC(C)(C)N)c4[nH]nc(N)c34)c3ccccc23)c1 | 155
Cc1ccc(F)c(NC(=O)Nc2ccc(-c3cncc4[nH]nc(N)c34)c3ccccc23)c1 | 25.4
Cc1ccc(F)c(NC(=O)Nc2ccc(-c3ccc(OCCCN4CCCC4)c4[nH]nc(N)c34)c3ccccc23)c1 | 16.3
Cc1ccc(F)c(NC(=O)Nc2ccc(-c3ccc(OCCC(C)(C)N)c4[nH]nc(N)c34)c3ccccc23)c1 | 106
Cc1cccc(NC(=O)Nc2ccc(-c3ccc(OCCCN4CCCC4)c4[nH]nc(N)c34)c3ccccc23)c1 | 45.4
Cc1cccc(NC(=O)Nc2ccc(-c3cncc4[nH]nc(N)c34)c3ccccc23)c1 | 6.7
